Assay results published in BigSolDB 2.1.

CCOc1ccccc1C(N)=O
solubility (mole fraction)
Conditions | 288.15 K | 293.15 K | 298.15 K | 303.15 K | 308.15 K | 313.15 K | 318.15 K | 323.15 K | 328.15 K
in 1,4-dioxane | 0.0116 | 0.0144 | 0.0175 | 0.0221 | 0.0272 | 0.0341 | 0.0427 | 0.0527 | 0.0653
in 2-butanone | 0.0124 | 0.015 | 0.0179 | 0.0218 | 0.0268 | 0.0335 | 0.0413 | 0.0501 | 0.0609
in DMF | 0.0485 | 0.0566 | 0.0653 | 0.0754 | 0.0875 | 0.101 | 0.117 | 0.133 | 0.151
in acetone | 0.0124 | 0.0153 | 0.0184 | 0.0226 | 0.0277 | 0.0344 | 0.0424 | 0.0507 | 0.0611
in ethyl formate | 0.00842 | 0.0103 | 0.0122 | 0.0151 | 0.0188 | 0.0238 | 0.0293 | 0.0354 | 0.0429
in isopropanol | 0.00616 | 0.00748 | 0.00916 | 0.0122 | 0.0157 | 0.0205 | 0.0265 | 0.0339 | 0.0423
in methyl acetate | 0.00747 | 0.00924 | 0.0114 | 0.0142 | 0.0182 | 0.023 | 0.0285 | 0.0349 | 0.0428
in n-butanol | 0.00781 | 0.00989 | 0.0122 | 0.0158 | 0.0199 | 0.0251 | 0.0322 | 0.0402 | 0.0498
in n-butyl acetate | 0.00505 | 0.00603 | 0.00705 | 0.0089 | 0.011 | 0.0134 | 0.0165 | 0.0201 | 0.0245
in n-pentanol | 0.00858 | 0.0106 | 0.0131 | 0.0165 | 0.0207 | 0.026 | 0.0329 | 0.0406 | 0.0504
in n-propyl acetate | 0.00566 | 0.0069 | 0.0082 | 0.0101 | 0.0122 | 0.015 | 0.0185 | 0.0227 | 0.0271
in sec-butanol | 0.00735 | 0.00924 | 0.0117 | 0.0153 | 0.0198 | 0.0256 | 0.0326 | 0.0411 | 0.0518
